Test results taken from patent US6667316B1, “Pharmaceutically active isoindoline derivatives” (Celgene Corporation, priority 1999, dated 2003).

melting point [°C]	SMILES
122 to 124	CCOc1cc(C(CS(C)(=O)=O)N2C(=O)c3ccc([N+](=O)[O-])c([N+](=O)[O-])c3C2=O)ccc1OC (centres unmarked)
138 to 140	CCOc1cc(C(CS(C)(=O)=O)N2C(=O)c3cccc(NC(=O)C(C)N(C)C)c3C2=O)ccc1OC.Cl (centres unmarked)
192 to 194	CCOc1cc([C@H](CS(C)(=O)=O)N2C(=O)c3cccc(NC(=O)CN(C)C)c3C2=O)ccc1OC.Cl
202 to 204	CCOc1cc([C@@H](CS(C)(=O)=O)N2C(=O)c3cccc(NC(=O)CN(C)C)c3C2=O)ccc1OC.Cl
178 to 180	COc1ccc(C(CS(C)(=O)=O)N2C(=O)c3cccc(NC(=O)CN(C)C)c3C2=O)cc1OC.Cl (centres unmarked)
145 to 147	CCOc1cc(C(CS(C)(=O)=O)N2Cc3cccc(NC(=O)CN(C)C)c3C2=O)ccc1OC.Cl (centres unmarked)
92 to 94	CCOc1cc(C(CC(=O)N(C)C)N2C(=O)c3cccc(NC(=O)CN(C)C)c3C2=O)ccc1OC.Cl (centres unmarked)
122 to 124	CCOc1cc([C@@H](CC(=O)N(C)C)N2C(=O)c3cccc(NC(=O)CN(C)C)c3C2=O)ccc1OC.Cl
205 to 207	CCOc1cc(C(CS(C)(=O)=O)N2C(=O)c3ccc(N)c(N)c3C2=O)ccc1OC (centres unmarked) [Example 2, 2-[1-(3-Ethoxy-4-methoxyphenyl)-2-methylsulfonylethyl]-4,5-diaminoisoindoline-1,3-dione]
153 to 155	CCOc1cc(C(CS(C)(=O)=O)N2C(=O)c3cccc(NC(=O)C4CC4)c3C2=O)ccc1OC (centres unmarked) [Example 7, Cyclopropyl-N-{2-[1-(3-ethoxy-4-methoxyphenyl)-2-methylsulfonylethyl]-1,3-dioxoisoindolin-4-yl}carboxamide]
166 to 168	CCOc1cc(C(CS(C)(=O)=O)N2C(=O)c3cccc(NC(=O)CCl)c3C2=O)ccc1OC (centres unmarked) [Example 8, 2-Chloro-N-{2-[1-(3-ethoxy-4-methoxyphenyl)-2-methylsulfonylethyl]-1,3-dioxoisoindolin-4-yl}acetamide]
111 to 112	CCOc1cc(C(CS(C)(=O)=O)N2C(=O)c3cccc(NC(=O)CN)c3C2=O)ccc1OC (centres unmarked) [Example 9, 2-Amino-N-{2-[1-(3-ethoxy-4-methoxyphenyl)-2-methylsulfonylethyl]-1,3-dioxoisoindolin-4-yl}acetamide]
130 to 132	CCOc1cc(C(CS(C)(=O)=O)N2C(=O)c3cccc(NC(=O)C(F)(F)F)c3C2=O)ccc1OC (centres unmarked) [Example 11, N-{2-[1-(3-ethoxy-4-methoxyphenyl)-2-methylsulfonylethyl]-1,3-dioxoisoindolin-4-yl}-2,2,2-trifluoroacetamide]
178 to 180	CCOc1cc(C(CS(C)(=O)=O)N2C(=O)c3cccc(CONC=O)c3C2=O)ccc1OC (centres unmarked) [Example 12, N-{2-[1-(3-Ethoxy-4-methoxyphenyl)-2-methylsulfonylethyl]-1,3-dioxoisoindolin-4-yl}methoxycarboxamide]
99 to 101	CCOc1cc(C(CS(C)(=O)=O)N2C(=O)c3cccc(-c4nnc(C)o4)c3C2=O)ccc1OC (centres unmarked) [Example 15, 2-[1-(3-Ethoxy-4-methoxyphenyl)-2-methylsulfonylethyl]-4-(5-methyl-1,3,4-oxadiazol-2-yl)isoindoline-1,3-dione]
132 to 134	CCOc1cc(C(CC(C)O)N2C(=O)c3cccc(NC(C)=O)c3C2=O)ccc1OC (centres unmarked) [Example 24, N-{2-[1-(3-ethoxy-4-methoxyphenyl)-3-hydroxybutyl]-1,3-dioxoisoindolin-4-yl}acetamide]
128 to 129	CCOc1cc(C(CC(C)=O)N2C(=O)c3cccc(NC(C)=O)c3C2=O)ccc1OC (centres unmarked) [Example 25, N-{2-[1-(3-Ethoxy-4-methoxyphenyl)-3-oxobutyl]-1,3-dioxoisoindolin-4-yl}acetamide]
81 to 83	CCOc1cc([C@@H](CC(C)=O)N2C(=O)c3cccc(NC(C)=O)c3C2=O)ccc1OC [Example 27, N-{2-[1R-(3-ethoxy-4-methoxyphenyl)-3-oxobutyl]-1,3-dioxoisoindolin-4-yl}acetamide]
134 to 136	CCOc1cc(C(CS(C)(=O)=O)N2C(=O)c3cccc(NC(=O)C4CCCC4)c3C2=O)ccc1OC (centres unmarked) [Example 45, Cyclopentyl-N-{2-[1-(3-ethoxy-4-methoxyphenyl)-2-(methylsulfonyl)ethyl]-1,3-dioxoisoindolin-4-yl}carboxamide]
163 to 165	CCOc1cc(C(CS(C)(=O)=O)N2C(=O)c3cccc(NC(=O)CCN(C)C)c3C2=O)ccc1OC (centres unmarked) [Example 46, 3-(Dimethylamino)-N-{2-[1-(3-ethoxy-4-methoxyphenyl)-2-(methylsulfonyl)ethyl]-1,3-dioxoisoindolin-4-yl}propanamide]
140 to 141	CCOc1cc([C@@H](CS(C)(=O)=O)N2C(=O)c3cccc(NC(=O)C4CC4)c3C2=O)ccc1OC [Example 51, Cyclopropyl-N-{2-[(1S)-1-(3-ethoxy-4-methoxyphenyl)-2-(methylsulfonyl)ethyl]-1,3-dioxoisoindolin-4-yl}carboxamide]
130 to 132	COc1ccc(C(CS(C)(=O)=O)N2C(=O)c3cccc(NC(=O)C4CC4)c3C2=O)cc1OC (centres unmarked) [Example 54, Cyclopropyl-N-{2-[1-(3,4-dimethoxyphenyl)-2-(methylsulfonyl)ethyl]-1,3-dioxoisoindolin-4-yl}carboxamide]
88 to 90	CCOc1cc([C@@H](CC(=O)N(C)C)N2Cc3cccc(NC(C)=O)c3C2=O)ccc1OC [Example 59, (3R)-3-[7-(Acetylamino)-1-oxoisoindolin-2-yl]-3-(3-ethoxy-4-methoxyphenyl)-N,N-dimethylpropanamide]
92 to 94	CCOc1cc([C@@H](CC(=O)N(C)C)N2Cc3cccc(NC(=O)C4CC4)c3C2=O)ccc1OC [Example 60, (3R)-3-[7-(Cyclopropylcarbonylamino)-1-oxoisoindolin-2-yl]-3-(3-ethoxy-4-methoxyphenyl)-N,N-dimethylpropanamide]
84 to 86	CCOc1cc(C(CS(C)(=O)=O)N2C(=O)c3cccc(CNC(C)=O)c3C2=O)ccc1OC (centres unmarked) [Example 66, N-({2-[1-(3-Ethoxy-4-methoxyphenyl)-2-(methylsulfonyl)ethyl]-1,3-dioxoisoindolin-4-yl}methyl)acetamide]
277 to 279	CCOc1cc(C(CS(C)(=O)=O)N2C(=O)c3cccc(N(S(C)(=O)=O)S(C)(=O)=O)c3C2=O)ccc1OC (centres unmarked) [Example 69, 4-[Bis(methylsulfonyl)amino]-2-[1-(3-ethoxy-4-methoxyphenyl)-2-(methyl-sulfonyl)ethyl]isoindoline-1,3-dione]
137 to 139	CCOc1cc(C(CC(=O)CC)N2C(=O)c3cccc(NC(C)=O)c3C2=O)ccc1OC (centres unmarked) [Example 72, N-{2-[1-(3-Ethoxy-4-methoxyphenyl)-3-oxopentyl]1,3-dioxoisoindolin-4-yl}acetamide]
145 to 147	COc1ccc(C(CC(C)=O)N2C(=O)c3cccc(NC(C)=O)c3C2=O)cc1OC1CCCC1 (centres unmarked) [Example 76, N-{2-[1-(3-Cyclopentyloxy-4-methoxyphenyl)-3-oxobutyl]-1,3-dioxoisoindolin-4-yl}acetamide]
194 to 196	COc1ccc(C(CC(C)=O)N2C(=O)c3cccc(N(S(C)(=O)=O)S(C)(=O)=O)c3C2=O)cc1OC (centres unmarked) [Example 78, 2-[1-(3,4-Dimethoxyphenyl)-3-oxobutyl]-4-[bis(methylsulfonyl)amino]isoindoline-1,3-dione]
